PMC10104807, “Modulation of tau tubulin kinases (TTBK1 and TTBK2) impacts ciliogenesis” (Scientific Reports, 2023)
Several values for one entry are separate records, joined by “and”; a condition that tells them apart may be missing. Identical values can stand only once. Like-named read-outs stand apart in the source and are kept apart here.

Experiments:
Assay in all cases: Eurofins enzymatic radiometric kinase assay
Format in all cases: biochemical
[1] = target: T1, PAK4 (Homo sapiens, UniProt O96013); conditions: ATP at Km, duplicate
T1 construct: purchased Eurofins (radiometric) / Eurofins DiscoverX scanMAX / Reaction Biology / SignalChem
Description: (§1) The column labeled “# < 10 PoC in enzyme panel” in Table 1 reports the number of kinases in this 17-member panel inhibited > 90% by each analog.
(§2) Details about the substrate used, protein constructs, controls, and assay protocol for these kinase assays are available at the Eurofins website: https://www.eurofinsdiscoveryservices.com. Reaction Biology Corp. (RBC) radiometric HotSpot kinase assays were carried out at the Km value for ATP in dose–response (10-pt curve) format for MYLK4, RIPK5, and YSK4 in Table S2. Details about the substrate used, protein constructs, controls, and assay protocol for these kinase assays are available at the RBC website: https://www.reactionbiology.com/list-kinase-targets-us-facility. SignalChem developed an ADP-Glo assay to test for enzymatic inhibition of PIKfyve in dose–response (10-pt curve) format in duplicate.

[2] = target: T2, TSSK4 (Homo sapiens, UniProt Q6SA08); conditions: ATP at Km, duplicate
T2 construct: purchased Eurofins (radiometric) / Eurofins DiscoverX scanMAX / Reaction Biology / SignalChem
T2 sequence (Q6SA08 1-328): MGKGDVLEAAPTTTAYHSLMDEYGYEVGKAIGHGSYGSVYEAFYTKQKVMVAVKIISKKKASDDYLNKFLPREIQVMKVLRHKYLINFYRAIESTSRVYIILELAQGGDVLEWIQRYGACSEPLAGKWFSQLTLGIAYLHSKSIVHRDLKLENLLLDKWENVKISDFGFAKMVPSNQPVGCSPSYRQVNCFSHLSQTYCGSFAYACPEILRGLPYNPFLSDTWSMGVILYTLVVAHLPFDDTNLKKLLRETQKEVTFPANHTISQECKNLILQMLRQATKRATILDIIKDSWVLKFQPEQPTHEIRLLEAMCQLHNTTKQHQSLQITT
Description: as §1, §2

[3] = target: T3, TSSK1 (Homo sapiens, UniProt Q9BXA7); conditions: ATP at Km, duplicate
T3 construct: purchased Eurofins (radiometric) / Eurofins DiscoverX scanMAX / Reaction Biology / SignalChem
T3 sequence (Q9BXA7 1-367): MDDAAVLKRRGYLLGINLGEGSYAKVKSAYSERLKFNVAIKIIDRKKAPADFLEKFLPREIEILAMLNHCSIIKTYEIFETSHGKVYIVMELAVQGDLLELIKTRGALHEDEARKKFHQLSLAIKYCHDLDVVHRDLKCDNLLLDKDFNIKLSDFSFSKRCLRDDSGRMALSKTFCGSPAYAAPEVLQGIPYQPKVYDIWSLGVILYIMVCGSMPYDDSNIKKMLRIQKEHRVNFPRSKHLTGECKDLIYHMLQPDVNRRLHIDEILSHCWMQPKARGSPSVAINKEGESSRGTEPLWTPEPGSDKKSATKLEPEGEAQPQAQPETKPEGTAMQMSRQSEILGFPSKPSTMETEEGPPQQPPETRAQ
Description: as §1, §2

[4] = target: T4, HIPK1 (Homo sapiens, UniProt Q86Z02); conditions: ATP at Km, duplicate
T4 construct: purchased Eurofins (radiometric) / Eurofins DiscoverX scanMAX / Reaction Biology / SignalChem
Description: as §1, §2

[5] = target: T5, PAK3 (Homo sapiens, UniProt O75914); conditions: ATP at Km, duplicate
T5 construct: purchased Eurofins (radiometric) / Eurofins DiscoverX scanMAX / Reaction Biology / SignalChem
Description: as §1, §2

[6] = target: T6, TAOK2 (Homo sapiens, UniProt Q9UL54); conditions: ATP at Km, duplicate
T6 construct: purchased Eurofins
T6 sequence (Q9UL54 1-1235): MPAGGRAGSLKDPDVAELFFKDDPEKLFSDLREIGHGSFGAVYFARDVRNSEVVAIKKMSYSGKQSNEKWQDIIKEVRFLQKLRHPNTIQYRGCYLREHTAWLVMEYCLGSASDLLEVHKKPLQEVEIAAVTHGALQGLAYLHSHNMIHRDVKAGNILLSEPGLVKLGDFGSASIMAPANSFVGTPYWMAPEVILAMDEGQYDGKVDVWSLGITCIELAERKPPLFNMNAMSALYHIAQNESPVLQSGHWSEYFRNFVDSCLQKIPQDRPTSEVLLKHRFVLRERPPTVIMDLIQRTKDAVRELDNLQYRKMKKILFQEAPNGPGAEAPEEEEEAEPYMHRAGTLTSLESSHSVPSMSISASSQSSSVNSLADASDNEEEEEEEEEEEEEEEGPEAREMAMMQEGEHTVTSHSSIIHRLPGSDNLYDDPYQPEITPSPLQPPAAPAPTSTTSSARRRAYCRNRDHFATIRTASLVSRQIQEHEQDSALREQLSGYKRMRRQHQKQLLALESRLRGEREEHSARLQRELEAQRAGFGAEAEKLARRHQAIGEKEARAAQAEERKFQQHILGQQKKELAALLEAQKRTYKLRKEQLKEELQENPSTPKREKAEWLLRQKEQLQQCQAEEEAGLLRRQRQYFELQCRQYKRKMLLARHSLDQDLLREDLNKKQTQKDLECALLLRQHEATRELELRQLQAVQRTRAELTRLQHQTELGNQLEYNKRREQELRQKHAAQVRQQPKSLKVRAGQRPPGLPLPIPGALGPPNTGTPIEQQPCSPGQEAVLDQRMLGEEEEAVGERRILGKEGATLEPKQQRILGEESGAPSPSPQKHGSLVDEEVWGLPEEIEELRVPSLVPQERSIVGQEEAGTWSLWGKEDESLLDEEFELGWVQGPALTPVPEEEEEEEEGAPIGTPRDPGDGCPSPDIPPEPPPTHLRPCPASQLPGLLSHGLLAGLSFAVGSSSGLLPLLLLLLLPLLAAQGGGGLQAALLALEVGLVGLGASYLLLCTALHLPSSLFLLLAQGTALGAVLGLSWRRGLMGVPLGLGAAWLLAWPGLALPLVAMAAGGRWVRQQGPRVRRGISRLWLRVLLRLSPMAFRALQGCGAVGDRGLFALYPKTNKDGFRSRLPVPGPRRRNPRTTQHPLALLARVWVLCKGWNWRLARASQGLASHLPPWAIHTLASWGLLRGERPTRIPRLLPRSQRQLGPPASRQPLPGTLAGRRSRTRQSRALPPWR
Description: as §1, §2

[7] = target: T7, TTBK2 (Homo sapiens, UniProt Q6IQ55); conditions: for TTBK2 PoC: 1 μM, duplicate, lower = greater inhibition
T7 construct: purchased Eurofins

[8] = target: T8, TTBK1 (Homo sapiens, UniProt Q5TCY1); conditions: for TTBK1 PoC: 1 μM, duplicate, lower = greater inhibition
T8 construct: purchased Eurofins
Description: as §1, §2

[9] = ATP at Km, dose–response 9-pt curve

T5 sequence (O75914 whole entry): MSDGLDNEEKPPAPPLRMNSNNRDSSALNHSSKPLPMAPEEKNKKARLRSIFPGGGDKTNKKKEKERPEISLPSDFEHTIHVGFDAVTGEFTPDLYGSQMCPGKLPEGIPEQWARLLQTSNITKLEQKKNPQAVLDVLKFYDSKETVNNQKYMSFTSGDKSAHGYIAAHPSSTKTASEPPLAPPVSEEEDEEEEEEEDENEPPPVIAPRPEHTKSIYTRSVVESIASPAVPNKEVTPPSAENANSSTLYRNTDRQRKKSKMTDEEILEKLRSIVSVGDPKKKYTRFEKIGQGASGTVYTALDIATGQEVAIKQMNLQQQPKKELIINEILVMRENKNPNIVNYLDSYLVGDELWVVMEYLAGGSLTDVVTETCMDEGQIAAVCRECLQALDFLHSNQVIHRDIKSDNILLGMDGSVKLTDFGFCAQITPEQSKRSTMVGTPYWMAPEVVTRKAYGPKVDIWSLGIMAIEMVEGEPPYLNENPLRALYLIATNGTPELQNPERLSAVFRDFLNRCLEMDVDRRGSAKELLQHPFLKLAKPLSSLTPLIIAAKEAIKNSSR
T7 sequence (Q6IQ55 whole entry): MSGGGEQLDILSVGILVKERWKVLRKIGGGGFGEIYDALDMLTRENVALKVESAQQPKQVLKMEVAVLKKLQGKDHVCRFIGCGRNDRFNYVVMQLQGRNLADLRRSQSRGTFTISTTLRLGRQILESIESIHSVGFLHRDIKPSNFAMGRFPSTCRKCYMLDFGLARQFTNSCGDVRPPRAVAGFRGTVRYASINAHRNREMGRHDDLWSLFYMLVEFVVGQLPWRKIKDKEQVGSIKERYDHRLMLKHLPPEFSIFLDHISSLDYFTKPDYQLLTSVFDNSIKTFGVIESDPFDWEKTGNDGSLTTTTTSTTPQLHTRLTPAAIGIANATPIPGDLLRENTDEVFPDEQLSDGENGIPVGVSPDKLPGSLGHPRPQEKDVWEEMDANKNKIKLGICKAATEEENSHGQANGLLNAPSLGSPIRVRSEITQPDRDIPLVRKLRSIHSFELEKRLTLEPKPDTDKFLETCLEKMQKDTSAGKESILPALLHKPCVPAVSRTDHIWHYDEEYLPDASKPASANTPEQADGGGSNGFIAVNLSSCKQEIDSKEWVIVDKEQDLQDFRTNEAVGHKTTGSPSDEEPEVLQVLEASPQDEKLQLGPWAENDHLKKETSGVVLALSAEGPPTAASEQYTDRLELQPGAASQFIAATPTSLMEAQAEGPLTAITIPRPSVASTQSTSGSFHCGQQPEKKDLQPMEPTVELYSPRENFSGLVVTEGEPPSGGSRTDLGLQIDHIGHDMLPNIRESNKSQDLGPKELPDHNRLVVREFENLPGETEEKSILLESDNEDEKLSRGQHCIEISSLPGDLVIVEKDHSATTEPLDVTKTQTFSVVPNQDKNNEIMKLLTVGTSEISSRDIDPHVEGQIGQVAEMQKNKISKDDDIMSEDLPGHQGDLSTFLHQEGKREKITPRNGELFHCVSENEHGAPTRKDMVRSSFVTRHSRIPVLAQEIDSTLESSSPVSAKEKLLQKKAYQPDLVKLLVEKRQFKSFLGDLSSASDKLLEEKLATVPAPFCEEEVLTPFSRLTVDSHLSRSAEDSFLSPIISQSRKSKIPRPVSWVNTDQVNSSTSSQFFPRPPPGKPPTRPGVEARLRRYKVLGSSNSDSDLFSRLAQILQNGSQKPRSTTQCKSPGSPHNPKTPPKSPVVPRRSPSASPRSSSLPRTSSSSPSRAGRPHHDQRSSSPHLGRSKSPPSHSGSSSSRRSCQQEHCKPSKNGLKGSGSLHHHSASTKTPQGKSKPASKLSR
T4 sequence (Q86Z02 whole entry): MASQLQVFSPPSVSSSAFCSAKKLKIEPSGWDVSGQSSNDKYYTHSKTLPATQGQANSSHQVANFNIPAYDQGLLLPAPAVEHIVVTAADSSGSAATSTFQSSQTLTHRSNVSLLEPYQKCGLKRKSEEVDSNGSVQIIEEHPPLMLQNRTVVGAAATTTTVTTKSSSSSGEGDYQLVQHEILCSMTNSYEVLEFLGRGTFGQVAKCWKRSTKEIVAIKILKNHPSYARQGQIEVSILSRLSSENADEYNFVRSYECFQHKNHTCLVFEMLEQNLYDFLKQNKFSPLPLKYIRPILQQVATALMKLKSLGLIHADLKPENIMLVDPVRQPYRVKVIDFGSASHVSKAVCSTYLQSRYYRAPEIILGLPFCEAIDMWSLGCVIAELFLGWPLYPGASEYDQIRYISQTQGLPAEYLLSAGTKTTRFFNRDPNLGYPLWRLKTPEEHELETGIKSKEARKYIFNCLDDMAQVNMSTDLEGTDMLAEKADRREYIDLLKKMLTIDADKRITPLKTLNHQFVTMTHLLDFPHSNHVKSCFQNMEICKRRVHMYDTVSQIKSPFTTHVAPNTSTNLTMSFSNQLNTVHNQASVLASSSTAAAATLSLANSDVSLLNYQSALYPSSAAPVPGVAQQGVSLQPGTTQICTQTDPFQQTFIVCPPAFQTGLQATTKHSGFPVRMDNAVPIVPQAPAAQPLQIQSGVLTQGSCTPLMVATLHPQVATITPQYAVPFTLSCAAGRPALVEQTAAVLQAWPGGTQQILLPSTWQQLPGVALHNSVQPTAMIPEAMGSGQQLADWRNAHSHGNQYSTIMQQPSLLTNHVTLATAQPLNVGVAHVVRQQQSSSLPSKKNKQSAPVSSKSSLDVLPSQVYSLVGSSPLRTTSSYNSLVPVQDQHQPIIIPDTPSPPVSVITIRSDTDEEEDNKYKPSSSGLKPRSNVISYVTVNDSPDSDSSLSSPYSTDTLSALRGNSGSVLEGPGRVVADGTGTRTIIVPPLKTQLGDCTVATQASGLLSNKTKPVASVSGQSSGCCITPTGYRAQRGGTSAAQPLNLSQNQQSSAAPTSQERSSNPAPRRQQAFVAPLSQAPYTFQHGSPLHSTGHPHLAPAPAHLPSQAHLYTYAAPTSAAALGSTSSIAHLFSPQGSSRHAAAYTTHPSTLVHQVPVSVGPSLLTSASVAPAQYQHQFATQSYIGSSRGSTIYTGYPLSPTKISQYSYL
T8 sequence (Q5TCY1 whole entry): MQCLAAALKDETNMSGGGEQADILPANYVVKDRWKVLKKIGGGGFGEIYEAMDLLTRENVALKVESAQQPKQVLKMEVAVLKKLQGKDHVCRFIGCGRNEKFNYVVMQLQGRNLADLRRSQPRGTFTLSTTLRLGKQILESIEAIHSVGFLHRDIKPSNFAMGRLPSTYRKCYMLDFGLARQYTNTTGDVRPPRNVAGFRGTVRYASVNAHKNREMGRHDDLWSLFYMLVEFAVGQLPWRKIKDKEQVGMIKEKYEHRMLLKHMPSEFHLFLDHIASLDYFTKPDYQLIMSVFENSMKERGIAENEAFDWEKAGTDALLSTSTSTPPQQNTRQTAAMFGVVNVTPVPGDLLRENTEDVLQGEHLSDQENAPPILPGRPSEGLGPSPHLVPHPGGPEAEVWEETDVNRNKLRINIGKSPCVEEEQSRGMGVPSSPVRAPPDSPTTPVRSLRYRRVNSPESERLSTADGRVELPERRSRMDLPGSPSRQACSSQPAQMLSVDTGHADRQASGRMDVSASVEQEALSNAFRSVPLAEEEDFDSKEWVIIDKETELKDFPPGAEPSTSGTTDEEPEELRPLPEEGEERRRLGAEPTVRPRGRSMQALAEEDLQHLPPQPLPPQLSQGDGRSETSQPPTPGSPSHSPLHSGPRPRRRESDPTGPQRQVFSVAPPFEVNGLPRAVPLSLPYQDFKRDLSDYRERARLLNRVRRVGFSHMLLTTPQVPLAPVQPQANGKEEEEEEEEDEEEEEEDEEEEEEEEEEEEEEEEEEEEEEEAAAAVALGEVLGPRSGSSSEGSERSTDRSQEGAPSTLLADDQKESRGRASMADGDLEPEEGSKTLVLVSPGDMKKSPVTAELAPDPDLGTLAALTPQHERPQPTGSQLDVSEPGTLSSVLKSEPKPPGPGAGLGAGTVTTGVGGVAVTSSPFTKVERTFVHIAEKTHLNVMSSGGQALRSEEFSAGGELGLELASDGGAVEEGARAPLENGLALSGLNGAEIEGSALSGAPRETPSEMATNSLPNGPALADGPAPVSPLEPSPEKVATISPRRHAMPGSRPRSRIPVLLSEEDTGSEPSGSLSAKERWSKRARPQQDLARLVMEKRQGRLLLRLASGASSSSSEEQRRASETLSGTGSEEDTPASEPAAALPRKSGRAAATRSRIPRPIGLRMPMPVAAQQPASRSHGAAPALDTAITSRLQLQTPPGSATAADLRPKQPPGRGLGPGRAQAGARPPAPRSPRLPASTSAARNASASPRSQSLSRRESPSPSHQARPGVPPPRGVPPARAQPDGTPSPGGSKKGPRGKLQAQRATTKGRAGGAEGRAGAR
T1 sequence (O96013 whole entry): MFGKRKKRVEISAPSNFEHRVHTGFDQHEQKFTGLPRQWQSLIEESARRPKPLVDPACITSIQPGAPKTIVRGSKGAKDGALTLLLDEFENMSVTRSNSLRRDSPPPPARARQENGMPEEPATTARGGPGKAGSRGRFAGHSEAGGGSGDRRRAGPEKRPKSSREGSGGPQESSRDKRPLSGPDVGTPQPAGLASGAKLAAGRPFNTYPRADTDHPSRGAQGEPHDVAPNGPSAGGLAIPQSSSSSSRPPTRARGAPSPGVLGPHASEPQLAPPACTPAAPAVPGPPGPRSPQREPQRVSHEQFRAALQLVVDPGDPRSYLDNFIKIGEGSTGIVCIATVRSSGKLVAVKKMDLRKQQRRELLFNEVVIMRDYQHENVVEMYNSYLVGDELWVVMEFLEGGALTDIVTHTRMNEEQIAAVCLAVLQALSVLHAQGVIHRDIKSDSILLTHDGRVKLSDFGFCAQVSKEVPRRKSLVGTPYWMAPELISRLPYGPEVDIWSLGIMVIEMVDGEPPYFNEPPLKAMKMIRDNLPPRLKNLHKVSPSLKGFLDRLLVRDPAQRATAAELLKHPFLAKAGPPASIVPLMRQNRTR

Row | SMILES | PAK4 PoC at 1 μM [1] [PoC] | TSSK4 PoC at 1 μM [2] [PoC] | TSSK1 PoC at 1 μM [3] [PoC] | HIPK1 PoC at 1 μM [4] [PoC] | PAK3 PoC at 1 μM [5] [PoC] | TAOK2 PoC at 1 μM [6] [PoC] | TTBK2 PoC ([7]; ATP at Km) | IC50 [8] [µM] | TTBK1 PoC ([8]; ATP at Km) | IC50 [8, 9] [µM] | IC50 [7] [µM] | IC50 [7, 9] [µM]
1 | CC(C)(O)C#Cc1ccc2[nH]c3c(c2c1)-c1nc(N)ncc1CCC3 [AMG28, reference compound] | 8 | 70 | 10 | 67 | 86 | 26 | 20 PoC |  |  |  |  | 
2 | CC(C)(O)C#Cc1ccc2[nH]c3c(c2c1)-c1nc(N)ncc1CC3 [Compound 1] | 58 | 55 | 48 | 76 | 86 | 28 | 43 PoC | > 1 | 78 PoC | 3.14 | > 1 | 1.21
3 | CC(C)(O)C#Cc1ccc2[nH]c3c(c2c1)-c1nc(N)ncc1CCCC3 [Compound 2] | 67 | 77 | 82 | 96 | 100 | 83 | 69 PoC and 69/NT PoC |  | 92 PoC and 92/NT^[c] PoC |  |  | 
4 | CC(C)(O)C#Cc1ccc2[nH]cc(-c3ccnc(N)n3)c2c1 [Compound 3] | 30 | 78 | 30 | 87 | 104 | 12 | 24 PoC |  | 43 PoC |  |  | 0.384
5 | COC(C)(C)C#Cc1ccc2[nH]c3c(c2c1)-c1nc(N)ncc1CCC3 [Compound 11] | 91 | 101 | 89 | 96 | 100 | 44 | 110 PoC and 110/NT PoC |  | 117 PoC and 117/NT PoC |  |  | 
